Measured values published in patent US9499493B2, “2,4-pyrimidinediamine compounds and their uses” (Rigel Pharmaceuticals, Inc., priority 2002, dated 2016).
Structures can show the parent of a compound that is named as a salt.

Tested on: cultured human mast cells (CHMC)
Experiment: CHMC low cell density IgE activation: tryptase assay
Format: cell-based
Settings: anti-IgE
Protocol: Pellet CHMC cells (980 rpm, 10 min) and resuspend in pre-warmed MT. Add 65 ul of cells to each 96-well plate. Depending on the degranulation activity for each particular CHMC donor, load 1000-1500 cells/well. Mix four times followed by a 1 hr incubation at 37° C. […] Stimulate cells by adding 25 ul of 6× anti-IgE solution to the appropriate plates. Add 25 ul MT to un-stimulated control wells. Mix twice following addition of the anti-IgE. Incubate at 37° C. for 30 minutes. […] Spin plates at 1000 rpm for 10 min to pellet cells. Transfer 25 ul of supernatant to a 96-well black bottom plate and add 100 ul of freshly diluted tryptase substrate solution to each well. Incubate plates at room temperature for 30 min.

| Compound | IC50 |
| --- | --- |
| N2-(N-Ethylcarbonylmethyleneoxy-1,4-benzoxazin-6-yl)-5-fluoro-N2-[3-hydroxyphenyl)phenyl]pyrimidinediamine [R908734] | 1.38 µM |
| N4-(1,4-Benzoxazin-7-yl)-5-fluoro-N2-(3-hydroxyphenyl)-pyrimidinediamine [R908711] | 1.76 µM |
| N4-[3-(2-(N4-(3-aminomethylenephenyl)-5-fluoro-4-pyrimidineamine)-N-methylaminomethylene)-phenyl]-5-fluoro-N2-[3-(methylaminocarbonylmethyleneoxy)phenyl]-2,4-pyrimidineamine [R940311] | 1.95 µM |

The next lines start with the values.

| IC50 | Compound |
| --- | --- |
| 0.973 µM | CNC(=O)COc1cccc(Nc2ncc(F)c(Nc3ccc(OC)c(CO)c3)n2)c1 [R950386, N4-(3-Hydroxymethylen-4-methoxyphenyl)-5-fluoro-N2-[3-(N-methylamino)carbonylmethyleneoxyphenyl]-2,4-pyrimidinediamine] |
| 2.52 µM | CCOc1ccc(Nc2nc(Nc3cccc(OCC(=O)NC)c3)ncc2F)cc1N [R950388, N4-(3-Amino-4-ethoxyphenyl)-5-fluoro-N2-[3-(N-methylamino)carbonylmethyleneoxyphenyl]-2,4-pyrimidinediamine] |

Tested on: cultured human mast cells (CHMC)
Experiment: CHMC low cell density ionomycin activation: tryptase assay
Format: cell-based
Settings: not given

| Compound | IC50 |
| --- | --- |
| Cc1cc(Nc2nc(Cl)ncc2F)ccc1F [Compound R926921] | > 10 µM |
| Cc1ccc(Nc2nc(Cl)ncc2F)cc1CNC(=O)OC(C)(C)C [Compound R926924] | > 10 µM |
| CNC(=O)COc1cccc(Nc2ncc(F)c(Nc3ccc4c(c3)N(C)CCO4)n2)c1 [R909259, 5-Fluoro-N2-[3-(N-methylaminocarbonylmethyleneoxy)phenyl]-N4-(N-methyl-1,4-benzoxazin-6-yl)pyrimidinediamine] | > 10 µM |
| CNC(=O)COc1cccc(Nc2ncc(F)c(Nc3ccc4c(c3)NCCO4)n2)c1 [R920395, N4-(1,4-Benzoxazin-6-yl)-5-fluoro-N2-[3-(N-methylamino)carbonylmethyleneoxyphenyl]-2,4-pyrimidinediamine Hydrogen Chloride Salt] | > 10 µM |
| Oc1cccc(Nc2ncc(F)c(Nc3cccc(O)c3)n2)c1 [R926461, N2,N4-Bis(3-sodiumphenoxy)-5-fluoro-2,4-pyrimidinediamine] | > 10 µM |
| O=C(c1cc2cc(Nc3ncc(F)c(Nc4ccc5c(c4)OCCO5)n3)ccc2o1)N1CCNCC1 [R926499, N4-(3,4-Ethylenedioxyphenyl)-5-fluoro-N2-[2-(N-piperazino)carbonylbenzofuran-5-yl]-2,4-pyrimidinediamine] | > 10 µM |
| O=C(c1cc2cc(Nc3ncc(F)c(Nc4cccc(O)c4)n3)ccc2o1)N1CCNCC1 [R926500, 5-Fluoro-N4-(3-hydroxyphenyl)-N2-[2-(N-piperazino)carbonylbenzofuran-5-yl]-2,4-pyrimidinediamine] | > 10 µM |
| O=C(COc1cccc(Nc2ncc(F)c(Nc3ccc4c(c3)OCCO4)n2)c1)N1CCNCC1 [R926504, N4-(3,4-Ethylenedioxyphenyl)-5-fluoro-N2-[3-(N-piperazino)carbonylmethyleneoxyphenyl]-2,4-pyrimidinediamine Hydrogen Chloride Salt] | > 10 µM |
| O=C(c1cc2cc(Nc3ncc(F)c(Nc4ccc5c(c4)OCCO5)n3)ccc2o1)N1CCCNCC1 [R926767, N4-(3,4-Ethylenedioxyphenyl)-5-fluoro-N2-[2-(N-homopiperazino)carbonylbenzofuran-5-yl]-2,4-pyrimidinediamine] | > 10 µM |
| O=C(c1cc2cc(Nc3ncc(F)c(Nc4ccc5c(c4)OCCO5)n3)ccc2o1)N1CCCNCC1 [R926768, N4-(3,4-Ethylenedioxyphenyl)-5-fluoro-N2-[2-(N-homopiperazino)carbonylbenzofuran-5-yl]-2,4-pyrimidinediamine Hydrogen Chloride Salt] | > 10 µM |
| CNC(=O)COc1cccc(Nc2ncc(F)c(Nc3ccc4c(c3)OCCO4)n2)c1 [R926816, N4-(3,4-Ethylenedioxyphenyl)-5-fluoro-N2-[3-(N-methylamino)carbonylmethyleneoxyphenyl]-2,4-pyrimidinediamine Hydrogen Chloride Salt] | > 10 µM |

The remaining lines, values ahead:

| IC50 | Compound |
| --- | --- |
| 4 µM | COC(=O)C(C)Oc1ccc(Nc2ncc(F)c(Nc3ccc(OC(C)C(=O)OC)cc3)n2)cc1 (racemic) [R926254, (±)-N2,N4-Bis[4-methoxycarbonyl(α-methyl)methyleneoxyphenyl]-5-fluoro-2,4-pyrimidinediamine] |
| > 10 µM | CNC(=O)C1Cc2cc(Nc3ncc(F)c(Nc4cccc(OC(F)(F)F)c4)n3)ccc2O1 (racemic) [R927040, (±)-N2-[2,3-Dihydro-(N-methylamino)carbonylbenzofuran-5-yl]-5-fluoro-N4-(3-trifluoromethoxyphenyl)-2,4-pyrimidinediamine] |
| > 10 µM | Oc1cccc(Nc2ncc(F)c(Nc3ccc4c(c3)OCCO4)n2)c1 [R925796, N4-(3,4-Ethylenedioxyphenyl)-5-fluoro-N2-(3-hydroxyphenyl)-2,4-pyrimidinediamine] |
| > 10 µM | O=C(c1cc2cc(Nc3ncc(F)c(Nc4ccc5c(c4)OCCO5)n3)ccc2o1)N1CCOCC1 [R926492, N4-(3,4-Ethylenedioxyphenyl)-5-fluoro-N2-[2-(N-morpholino)carbonylbenzofuran-5-yl]-2,4-pyrimidinediamine] |
| 10 µM | CCOC(=O)COc1ccc(Nc2nc(Nc3ccc(OCC(=O)OCC)cc3)c(NC(=O)NC(=O)CCl)c(C(=O)OCC)n2)cc1 [R926589, N2,N4-Bis(4-ethoxycarbonylmethyleneoxyphenyl)-6-ethoxycarbonyl-5-(chloroacetylaminocarbonylamino)-2,4-pyrimidinediamine] |
| > 10 µM | CN(CCO)C(=O)c1cc2cc(Nc3ncc(F)c(Nc4cccc(O)c4)n3)ccc2o1 [R926725, 5-Fluoro-N4-(3-hydroxyphenyl)-N2-[2-(N-methyl-N-2-hydroxyethyl)carbonylbenzofuran-5-yl)-2,4-pyrimidinediamine] |
| > 10 µM | CNC(=O)COc1cccc(Nc2ncc(F)c(Nc3ccc(C)c(O)c3)n2)c1 [R926753, 5-Fluoro-N4-(3-hydroxy-4-methylphenyl)-N2-[3-[(N-methylamino)carbonylmethyleneoxy]phenyl]-2,4-pyrimidinediamine] |
| > 10 µM | CNC(=O)COc1cc(Nc2ncc(F)c(Nc3cccc(O)c3)n2)ccc1C [R926757, 5-Fluoro-N4-(3-hydroxyphenyl)-N2-[4-methyl-3-[(N-methylamino)carbonylmethyleneoxy]phenyl]-2,4-pyrimidinediamine] |
| 10 µM | CC(C)NC(=O)COc1cccc(Nc2ncc(F)c(Nc3ccc4c(c3)OCCO4)n2)c1 [R926830, N4-(3,4-Ethylenedioxyphenyl)-5-fluoro-N2-[3-(N-isopropylamino)carbonylmethyleneoxyphenyl]-2,4-pyrimidinediamine] |
| 10 µM | O=C(COc1cccc(Nc2ncc(F)c(Nc3ccc4c(c3)OCCO4)n2)c1)NC1CC1 [R926848, N2-[3-(N-Cyclopropylamino)carbonylmethyleneoxyphenyl]-N4-(3,4-ethylenedioxyphenyl)-5-fluoro-2,4-pyrimidinediamine] |
| > 10 µM | CNC(=O)COc1cccc(Nc2ncc(F)c(Nc3cccc4c3C(=O)N(C)C4=O)n2)c1 [R926856, 5-Fluoro-N2-[3-(N-methylamino)carbonylmethyleneoxyphenyl]-N4-(N-methylphthalimido-4-yl)-2,4-pyrimidinediamine] |
